According to ChEMBL document CHEMBL3039007, “Structure-based identification of OATP1B1/3 inhibitors” (Mol Pharmacol, 2013):

Assays:
[1] = biological target: T1, Solute carrier organic anion transporter family member 1B1 (Homo sapiens, UniProt Q9Y6L6); settings: chinese hamster, cho, 10 µM
T1 sequence (Q9Y6L6 whole entry): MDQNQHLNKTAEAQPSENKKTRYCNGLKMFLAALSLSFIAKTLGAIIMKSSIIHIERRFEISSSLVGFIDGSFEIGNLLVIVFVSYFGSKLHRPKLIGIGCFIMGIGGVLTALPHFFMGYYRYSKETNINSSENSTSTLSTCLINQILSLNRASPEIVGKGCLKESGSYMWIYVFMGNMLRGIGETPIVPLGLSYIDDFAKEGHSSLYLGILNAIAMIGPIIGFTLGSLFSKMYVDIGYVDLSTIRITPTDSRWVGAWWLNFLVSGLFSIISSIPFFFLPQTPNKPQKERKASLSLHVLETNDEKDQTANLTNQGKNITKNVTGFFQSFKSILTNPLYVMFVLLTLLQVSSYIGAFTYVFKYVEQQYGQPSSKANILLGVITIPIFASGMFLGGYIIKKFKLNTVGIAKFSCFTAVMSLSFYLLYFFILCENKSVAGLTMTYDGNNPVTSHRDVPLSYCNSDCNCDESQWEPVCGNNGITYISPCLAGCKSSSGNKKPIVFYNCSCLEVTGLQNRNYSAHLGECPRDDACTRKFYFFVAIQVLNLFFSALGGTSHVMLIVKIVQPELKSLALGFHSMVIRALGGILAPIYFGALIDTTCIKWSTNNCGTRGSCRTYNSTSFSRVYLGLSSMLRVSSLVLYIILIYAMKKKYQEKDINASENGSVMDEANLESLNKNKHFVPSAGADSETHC

[2] = biological target: T2, Solute carrier organic anion transporter family member 1B3 (Homo sapiens, UniProt Q9NPD5); settings: chinese hamster, cho, 10 µM
T2 sequence (Q9NPD5 whole entry): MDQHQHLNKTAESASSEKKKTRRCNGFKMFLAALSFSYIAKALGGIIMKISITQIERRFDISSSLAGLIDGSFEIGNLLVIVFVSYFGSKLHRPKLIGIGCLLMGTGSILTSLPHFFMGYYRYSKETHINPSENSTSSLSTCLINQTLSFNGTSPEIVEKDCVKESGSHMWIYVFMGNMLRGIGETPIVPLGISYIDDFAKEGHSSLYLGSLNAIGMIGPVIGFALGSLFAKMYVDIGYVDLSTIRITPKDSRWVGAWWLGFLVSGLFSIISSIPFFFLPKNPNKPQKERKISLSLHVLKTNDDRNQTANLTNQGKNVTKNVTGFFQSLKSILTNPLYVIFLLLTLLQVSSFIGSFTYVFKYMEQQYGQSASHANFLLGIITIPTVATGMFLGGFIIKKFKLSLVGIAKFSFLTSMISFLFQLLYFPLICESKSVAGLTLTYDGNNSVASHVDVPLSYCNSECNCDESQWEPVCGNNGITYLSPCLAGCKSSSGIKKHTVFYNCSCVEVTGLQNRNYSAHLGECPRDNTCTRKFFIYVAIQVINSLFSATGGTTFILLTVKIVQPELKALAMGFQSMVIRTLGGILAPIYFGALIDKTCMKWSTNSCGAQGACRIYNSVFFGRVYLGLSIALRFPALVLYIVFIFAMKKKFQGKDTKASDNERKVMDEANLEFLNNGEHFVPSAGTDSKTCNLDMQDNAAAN

| SMILES | residual activity [1] [%] | residual activity [2] [%] |
| --- | --- | --- |
| CCCCC(=O)N(Cc1ccc(-c2ccccc2-c2nnn[nH]2)cc1)[C@H](C(=O)O)C(C)C | 67.47 | 56.31 |
| CC(C)(C)NCC(O)c1cc(O)cc(O)c1.O=S(=O)(O)O (centres undefined) | 89.3 | 94.09 |
| CC(=O)N[C@@H](CC(=O)O)C(=O)O | 127.8163 | 103.6 |
| COc1cccc(OC)c1C(=O)N[C@@H]1C(=O)N2[C@@H]1SC(C)(C)[C@@H]2C(=O)[O-].[Na+] | 68.38 | 108.8 |
| NCC[C@H](O)C(=O)N[C@@H]1C[C@H](N)[C@@H](O[C@H]2O[C@H](CN)[C@@H](O)[C@H](O)[C@H]2O)[C@H](O)[C@H]1O[C@H]1O[C@H](CO)[C@@H](O)[C@H](N)[C@H]1O.O=S(=O)(O)O | 72.99 | 92.21 |
| COc1cnc(NS(=O)(=O)c2ccc(N)cc2)nc1 | 233.5 | 112.9 |
| CN[C@@H]1[C@H](O)[C@H](NC)[C@H]2O[C@@]3(O)C(=O)C[C@@H](C)O[C@H]3O[C@@H]2[C@H]1O.Cl | 89.17 | 96.23 |
| CC(C)CC(N(C)C)C1(c2ccc(Cl)cc2)CCC1.Cl (centres undefined) | 96.94 | 113.9 |
| CC(=O)N[C@@H](CCC(=O)O)C(=O)O | 59.95 | 77.8 |
| CCCCCC(C)N.O=S(=O)(O)O (centres undefined) | 70.88 | 90.66 |
| COC(=O)CCCOc1ccc(Cl)cc1Cl | 118.1 | 115.5 |
| CC1=C(CC(=O)O)c2cc(F)ccc2/C1=C\c1ccc([S+](C)[O-])cc1 (centres undefined) | 240.6 | 88.55 |
| CC[C@@H](CO)NCCN[C@@H](CC)CO.Cl | 71.57 | 86.34 |
| CC(C)NCC(O)c1ccc2ccccc2c1.Cl (centres undefined) | 83.88 | 87.91 |
| O=C(O)CCCOc1ccc(Cl)cc1Cl | 123.3 | 112 |
| CCCCCCCCCCCCCCCC[n+]1ccccc1.O.[Cl-] | 77.95 | 166.6 |
| CC(=O)NC(C(=O)O)C(C)(C)SN=O (centres undefined) | 73.57 | 84.98 |
| C[C@]12CC[C@@H]3c4ccc(OCc5ccccc5)cc4CC[C@H]3[C@@H]1C[C@@H](O)[C@@H]2O | 100 | 102.7 |
| CC(C)CCCCCOC(=O)COc1cc(Cl)c(Cl)cc1Cl | 105.5 | 93.76 |
| C[C@]12CC[C@@H]3c4ccc(OS(=O)(=O)[O-])cc4CC[C@H]3[C@@H]1CC[C@@H]2O.[Na+] | 53.18 | 95.65 |
| COc1ccc2c(c1)CC[C@@H]1[C@@H]2CC[C@]2(C)[C@@H](O)[C@H](O)C[C@@H]12 | 76.58 | 103.4 |
| C[C@@H]1CC(Cl)CC[C@H]1C(=O)OC(C)(C)C.C[C@@H]1CCC(Cl)C[C@H]1C(=O)OC(C)(C)C (some centres undefined) | 121 | 115.1 |
| CCC(=O)OCC(=O)[C@]1(OC(=O)CC)[C@H](C)C[C@H]2[C@@H]3CCC4=CC(=O)C=C[C@]4(C)[C@@]3(F)[C@@H](O)C[C@]21C | 76.42 | 77.45 |
| CC1(C)C(=O)[C@@H]2O[C@@H]2[C@]2(C)[C@H]3CC[C@@]4(C)[C@H](c5ccoc5)OC(=O)[C@H]5O[C@]54[C@]3(C)C(=O)C[C@@H]12 | 68.02 | 74.75 |

| SMILES | residual activity [1] [%] | residual activity [2] [%] |
| --- | --- | --- |
| CC1(C)[C@H](O)CC(=O)[C@]2(C)[C@H]3CC[C@@]4(C)[C@H](c5ccoc5)OC(=O)[C@H]5O[C@]54[C@]3(C)C(=O)C[C@@H]12 | 33.49 | 61.45 |
| C[C@H](CCC(=O)O)[C@H]1CC[C@H]2[C@@H]3CC[C@@H]4CC(=O)CC[C@]4(C)[C@H]3C=C[C@]12C | 40.37 | 203.2 |
| COC(=O)[C@@H]1OC(=O)[C@H]2O[C@]23[C@@]2(C)[C@H](CC[C@@]13C)[C@@]1(C)CCC(=O)C(C)(C)[C@@H]1C[C@H]2OC(C)=O | 49.67 | 99.12 |
| C=C(C)CCC[C@@H](C)CCOC(C)=O | 104.4 | 112.9 |
| CC1(C)C=CC(=O)[C@]2(C)[C@H]3CC[C@@]4(C)[C@H](c5ccoc5)OC(=O)[C@H]5O[C@]54[C@]3(C)C(=O)C[C@@H]12 | 56.15 | 89.62 |
| CC1(C)[C@H](O)C[C@H](O)[C@@]2(C)[C@H]3CC[C@]4(C)[C@@H](c5ccoc5)OC(=O)[C@H]5O[C@]54[C@]3(C)[C@H](O)C[C@@H]12 | 48 | 84.19 |
| C=C1C2CC[C@H]3[C@]4(C)C[C@H](O[C@H]5O[C@H](CO)[C@@H](OS(=O)(=O)[O-])[C@H](OS(=O)(=O)[O-])[C@H]5OC(=O)CC(C)C)C[C@@H](C(=O)O)[C@H]4CC[C@]3(C2)[C@H]1O.[K+].[K+] | 100 | 92.24 |
| C[C@H](CCC(=O)O)[C@H]1CC[C@H]2[C@@H]3CC[C@@H]4C[C@H](O)CC[C@]4(C)[C@H]3C=C[C@]12C | 23.69 | 112 |
| CC(=O)OCC(=O)[C@@]1(O)CC[C@H]2[C@@H]3CC[C@@H]4C[C@H](O)CC[C@]4(C)[C@H]3C(=O)C[C@@]21C | 81.64 | 80 |
| COC[C@]12CN(C=O)C3[C@@H]4[C@H](OC)[C@H]1[C@@]3([C@@H](OC)C[C@H]2O)[C@@H]1C[C@@]2(O)[C@H](OC(=O)c3ccccc3)[C@@H]1[C@]4(OC(C)=O)[C@@H](O)[C@@H]2OC | 90.86 | 73.94 |
| C[C@]12CC[C@@H](OS(=O)(=O)[O-])C[C@@H]1CC[C@@H]1[C@@H]2CC[C@]2(C)C(=O)CC[C@@H]12.[Na+] | 27.84 | 40.78 |
| CC(=O)O[C@H]1CC[C@@]2(C)[C@H](CC[C@@H]3[C@@H]2CC[C@]2(C)[C@@H]4[C@H](C[C@@H]32)O[C@]2(CC[C@@H](C)CO2)[C@H]4C)C1 | 103.6 | 92.75 |
| CC(=O)O[C@H]1CC[C@@]2(C)C(=CC[C@H]3[C@@H]4CC[C@H]([C@H](C)CCCC(C)C)[C@@]4(C)CC[C@@H]32)C1 | 89.8 | 102.8 |
| CC(=O)O[C@H]1CC[C@@]23C(=O)O[C@]45CC[C@H](C6=CC(=O)OC6)[C@@]4(C)CC[C@H]2[C@H]5CC[C@]3(O)C1 | 59.99 | 85.76 |
| CC=CC(=O)N(CC)c1ccccc1C | 71.83 | 72.95 |
| O=C([O-])c1cc2cc(Cc3cccnc3)ccc2o1.[Na+] | 121 | 108.4 |
| O=C(O)CCCN1C(=O)c2cccc3cccc(c23)C1=O | 113.1 | 112.7 |
| C=C1C(=O)O[C@@H]2C3O[C@]3(C)CC/C=C(\C)CC[C@@H]12 (some centres undefined) | 140.7 | 114.2 |
| CCOC(N)=O | 109.1 | 101.6 |
| Cc1cc(-c2ccccc2)nnc1NCCN1CCOCC1.Cl | 73.96 | 96.66 |
| O=C1OC(=O)C2C3CCC(O3)C12 (centres undefined) | 106.4 | 93.17 |
| C=CC1=C(C(=O)O)N2C(=O)[C@@H](NC(=O)/C(=N\O)c3csc(N)n3)[C@H]2SC1 | 92.13 | 78.64 |
| CCN(CC)C(=S)SSC(=S)N(CC)CC | 71.59 | 64.06 |
